Laboratory results taken from BindingDB's records for doi:10.1021/jm0703035 (Research Triangle Institute, 2007).

Key:
Transporter = Transporter (Rattus norvegicus, UniProt Q63380); assay: Ligand Binding Assay
Protocol: Brains from male Sprague-Dawley rats were removed, dissected, and rapidly frozen. Ligand binding experiments were conducted in assay tubes containing radioligand, rat membrane tissue, and test compounds. Incubations were terminated by filtration with through GF/B filters. Results were analyzed using the Equilibrium Binding Data Analysis software (EBDA, Biosoft).

[1] = target: Sodium-dependent noradrenaline transporter (Homo sapiens, UniProt P23975); assay: Ligand Binding Assay
Chain of Sodium-dependent noradrenaline transporter (P23975 whole entry): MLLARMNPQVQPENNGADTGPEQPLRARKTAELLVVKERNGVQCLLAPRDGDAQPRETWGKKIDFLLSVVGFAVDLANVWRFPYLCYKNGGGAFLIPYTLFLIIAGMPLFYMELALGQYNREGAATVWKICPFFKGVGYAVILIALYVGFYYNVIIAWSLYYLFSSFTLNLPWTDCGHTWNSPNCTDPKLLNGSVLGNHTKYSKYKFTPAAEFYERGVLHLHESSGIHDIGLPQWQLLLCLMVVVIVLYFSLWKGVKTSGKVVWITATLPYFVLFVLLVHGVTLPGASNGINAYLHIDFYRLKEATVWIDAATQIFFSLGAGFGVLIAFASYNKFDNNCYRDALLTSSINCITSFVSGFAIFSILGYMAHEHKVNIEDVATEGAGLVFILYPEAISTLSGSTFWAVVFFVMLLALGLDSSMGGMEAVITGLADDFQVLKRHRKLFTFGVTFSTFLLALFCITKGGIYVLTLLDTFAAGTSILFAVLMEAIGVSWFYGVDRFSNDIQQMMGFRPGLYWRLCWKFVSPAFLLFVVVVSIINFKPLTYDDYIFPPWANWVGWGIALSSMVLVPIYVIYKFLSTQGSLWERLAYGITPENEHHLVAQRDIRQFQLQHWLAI

Chain of Transporter (Q63380 whole entry): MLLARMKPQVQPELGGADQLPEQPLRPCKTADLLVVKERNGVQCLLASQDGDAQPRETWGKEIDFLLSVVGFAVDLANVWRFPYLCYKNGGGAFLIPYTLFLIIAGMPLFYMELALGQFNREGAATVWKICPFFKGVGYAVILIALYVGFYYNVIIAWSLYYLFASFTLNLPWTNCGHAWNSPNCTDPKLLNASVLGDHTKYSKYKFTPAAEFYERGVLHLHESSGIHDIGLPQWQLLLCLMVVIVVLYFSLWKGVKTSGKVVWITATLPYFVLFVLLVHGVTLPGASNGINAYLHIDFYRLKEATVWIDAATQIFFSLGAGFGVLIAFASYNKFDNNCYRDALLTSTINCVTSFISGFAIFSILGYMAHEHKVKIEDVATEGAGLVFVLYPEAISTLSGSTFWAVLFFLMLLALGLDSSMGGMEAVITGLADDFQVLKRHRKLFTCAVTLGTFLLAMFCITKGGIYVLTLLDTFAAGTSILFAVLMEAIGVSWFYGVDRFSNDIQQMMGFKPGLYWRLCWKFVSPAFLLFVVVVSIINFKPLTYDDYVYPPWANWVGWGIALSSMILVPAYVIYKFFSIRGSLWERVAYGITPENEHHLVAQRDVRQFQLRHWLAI

Compound	Ki (Transporter)	EC50 [1]
CN1[C@H]2CC[C@@H]1[C@@H](c1ncc(-c3ccc(Cl)c(Cl)c3)s1)[C@@H](c1ccc(Cl)cc1)C2 [2-[(1R,2S,3S,5S)-3-(4-chlorophenyl)-8-methyl-8-azabicyclo[3.2.1]octan-2-yl]-5-(3,4-dichlorophenyl)-1,3-thiazole]	> 2000 nM	
COc1ccc(-c2cnc([C@H]3[C@@H](c4ccc(Cl)cc4)C[C@@H]4CC[C@H]3N4C)s2)cc1OC [2-[(1R,2S,3S,5S)-3-(4-chlorophenyl)-8-methyl-8-azabicyclo[3.2.1]octan-2-yl]-5-(3,4-dimethoxyphenyl)-1,3-thiazole]	> 2000 nM	
CN1[C@H]2CC[C@@H]1[C@@H](c1ncc(-c3cccc([N+](=O)[O-])c3)s1)[C@@H](c1ccc(Cl)cc1)C2 [2-[(1R,2S,3S,5S)-3-(4-chlorophenyl)-8-methyl-8-azabicyclo[3.2.1]octan-2-yl]-5-(3-nitrophenyl)-1,3-thiazole]	> 2000 nM	
CN1[C@H]2CC[C@@H]1[C@@H](c1ncc(-c3ccc(F)cc3)s1)[C@@H](c1ccc(Cl)cc1)C2 [2-[(1R,2S,3S,5S)-3-(4-chlorophenyl)-8-methyl-8-azabicyclo[3.2.1]octan-2-yl]-5-(4-fluorophenyl)-1,3-thiazole]	> 2000 nM	
COc1ccc(-c2cnc([C@H]3[C@@H](c4ccc(Cl)cc4)C[C@@H]4CC[C@H]3N4C)s2)cc1 [2-[(1R,2S,3S,5S)-3-(4-chlorophenyl)-8-methyl-8-azabicyclo[3.2.1]octan-2-yl]-5-(4-methoxyphenyl)-1,3-thiazole]	> 2000 nM	
CN1[C@H]2CC[C@@H]1[C@@H](c1ncc(-c3ccc([N+](=O)[O-])cc3)s1)[C@@H](c1ccc(Cl)cc1)C2 [2-[(1R,2S,3S,5S)-3-(4-chlorophenyl)-8-methyl-8-azabicyclo[3.2.1]octan-2-yl]-5-(4-nitrophenyl)-1,3-thiazole]	> 2000 nM	
CN1[C@H]2CC[C@@H]1[C@@H](c1ncc(-c3ccccc3)s1)[C@@H](c1ccc(Cl)cc1)C2 [2-[(1R,2S,3S,5S)-3-(4-chlorophenyl)-8-methyl-8-azabicyclo[3.2.1]octan-2-yl]-5-phenyl-1,3-thiazole]		750 nM
Cc1ccc([C@H]2C[C@@H]3CC[C@H]([C@H]2c2ncc(-c4cccc([N+](=O)[O-])c4)s2)N3C)cc1 [2-[(1R,2S,3S,5S)-8-methyl-3-(4-methylphenyl)-8-azabicyclo[3.2.1]octan-2-yl]-5-(3-nitrophenyl)-1,3-thiazole]	> 4300 nM	
Cc1ccc([C@H]2C[C@@H]3CC[C@H]([C@H]2c2ncc(-c4ccc([N+](=O)[O-])cc4)s2)N3C)cc1 [2-[(1R,2S,3S,5S)-8-methyl-3-(4-methylphenyl)-8-azabicyclo[3.2.1]octan-2-yl]-5-(4-nitrophenyl)-1,3-thiazole]	> 2000 nM	
Cc1ccc([C@H]2C[C@@H]3CC[C@H]([C@H]2c2ncc(-c4ccc(Cl)c(Cl)c4)s2)N3C)cc1 [5-(3,4-dichlorophenyl)-2-[(1R,2S,3S,5S)-8-methyl-3-(4-methylphenyl)-8-azabicyclo[3.2.1]octan-2-yl]-1,3-thiazole]	> 2000 nM	4000 nM
COc1ccc(-c2cnc([C@H]3[C@@H](c4ccc(C)cc4)C[C@@H]4CC[C@H]3N4C)s2)cc1OC [5-(3,4-dimethoxyphenyl)-2-[(1R,2S,3S,5S)-8-methyl-3-(4-methylphenyl)-8-azabicyclo[3.2.1]octan-2-yl]-1,3-thiazole]	> 2000 nM	
CN1[C@H]2CC[C@@H]1[C@@H](c1ncc(-c3cccc(Br)c3)s1)[C@@H](c1ccc(Cl)cc1)C2 [5-(3-bromophenyl)-2-[(1R,2S,3S,5S)-3-(4-chlorophenyl)-8-methyl-8-azabicyclo[3.2.1]octan-2-yl]-1,3-thiazole]	> 2000 nM	
Cc1ccc([C@H]2C[C@@H]3CC[C@H]([C@H]2c2ncc(-c4cccc(Br)c4)s2)N3C)cc1 [5-(3-bromophenyl)-2-[(1R,2S,3S,5S)-8-methyl-3-(4-methylphenyl)-8-azabicyclo[3.2.1]octan-2-yl]-1,3-thiazole]	> 2000 nM	
CN1[C@H]2CC[C@@H]1[C@@H](c1ncc(-c3ccc(Br)cc3)s1)[C@@H](c1ccc(Cl)cc1)C2 [5-(4-bromophenyl)-2-[(1R,2S,3S,5S)-3-(4-chlorophenyl)-8-methyl-8-azabicyclo[3.2.1]octan-2-yl]-1,3-thiazole]	> 2000 nM	
CN1[C@H]2CC[C@@H]1[C@@H](c1ncc(-c3ccc(Cl)cc3)s1)[C@@H](c1ccc(Cl)cc1)C2 [5-(4-chlorophenyl)-2-[(1R,2S,3S,5S)-3-(4-chlorophenyl)-8-methyl-8-azabicyclo[3.2.1]octan-2-yl]-1,3-thiazole]	> 2000 nM	
Cc1ccc([C@H]2C[C@@H]3CC[C@H]([C@H]2c2ncc(-c4ccc(Cl)cc4)s2)N3C)cc1 [5-(4-chlorophenyl)-2-[(1R,2S,3S,5S)-8-methyl-3-(4-methylphenyl)-8-azabicyclo[3.2.1]octan-2-yl]-1,3-thiazole]	> 2000 nM	
Cc1ccc([C@H]2C[C@@H]3CC[C@H]([C@H]2c2ncc(-c4ccc(F)cc4)s2)N3C)cc1 [5-(4-fluorophenyl)-2-[(1R,2S,3S,5S)-8-methyl-3-(4-methylphenyl)-8-azabicyclo[3.2.1]octan-2-yl]-1,3-thiazole]	> 2000 nM	
COc1ccc(-c2cnc([C@H]3[C@@H](c4ccc(C)cc4)C[C@@H]4CC[C@H]3N4C)s2)cc1 [5-(4-methoxyphenyl)-2-[(1R,2S,3S,5S)-8-methyl-3-(4-methylphenyl)-8-azabicyclo[3.2.1]octan-2-yl]-1,3-thiazole]	> 2000 nM	1810 nM
